Measured values taken from article PMC9865645, “The Impact of N^ε-Acryloyllysine Piperazides on the Conformational Dynamics of Transglutaminase 2” (International Journal of Molecular Sciences, 2023).
Read-outs that look alike come from different tables or passages of the source.

Legend:
[1] = parameters: method as in doi:10.1039/DT9920002039, PMID 1868851; details: cited from earlier work
[2] = target: T1, His6-hTGase 2 (Homo sapiens, UniProt P21980); test: fluorimetric activity assay (substrate Z-Glu(HMC)-Gly-OH) for kinact/KI; assay type: biochemical; details: mean (SEM) of two to four experiments
T1 construct: purchased Zedira (Darmstadt, Germany) T022, lot 0716a
T1 sequence (P21980 1-687): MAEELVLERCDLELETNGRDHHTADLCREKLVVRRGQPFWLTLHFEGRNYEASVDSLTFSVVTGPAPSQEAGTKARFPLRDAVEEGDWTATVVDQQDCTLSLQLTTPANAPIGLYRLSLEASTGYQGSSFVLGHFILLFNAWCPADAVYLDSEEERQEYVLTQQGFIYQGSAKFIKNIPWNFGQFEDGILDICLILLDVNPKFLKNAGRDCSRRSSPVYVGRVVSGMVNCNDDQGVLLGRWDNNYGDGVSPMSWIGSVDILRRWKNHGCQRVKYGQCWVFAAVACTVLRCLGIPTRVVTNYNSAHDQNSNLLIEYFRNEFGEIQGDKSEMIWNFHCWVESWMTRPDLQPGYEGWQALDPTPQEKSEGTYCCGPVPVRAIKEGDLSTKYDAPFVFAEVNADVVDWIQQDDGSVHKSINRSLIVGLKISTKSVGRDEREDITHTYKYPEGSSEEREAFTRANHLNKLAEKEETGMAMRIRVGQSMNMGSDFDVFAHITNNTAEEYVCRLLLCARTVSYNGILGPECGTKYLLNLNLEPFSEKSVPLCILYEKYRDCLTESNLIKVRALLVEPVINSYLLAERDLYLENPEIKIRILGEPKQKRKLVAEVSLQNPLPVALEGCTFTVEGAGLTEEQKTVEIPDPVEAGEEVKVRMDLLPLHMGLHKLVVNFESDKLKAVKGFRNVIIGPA

[3] = target: T2, hTGase 2 (Homo sapiens, UniProt P21980); test: switchSENSE dynamic mode: upward motion (relative inverse slope, friction) of hTGase 2-dsDNA lever; details: 10 µM inhibitor with 1 mM Ca^2+, 0.1% DMSO, then pure TE40; non-directed labeling
T2 construct: purchased Zedira (Darmstadt, Germany) T022, lot 0716a
T2 sequence (P21980 1-687): T1 sequence (P21980 1-687)
Protocol: Prior to the measurement of the switching kinetics of the differently conjugated hTGase 2, a complementary ssDNA without the enzyme (500 nM) was hybridized to the single-stranded capture strands on the chip electrodes to obtain the reference kinetics of the dsDNA lever. In addition, to determine the impact of CaCl2 and DMSO on the movement of the bare dsDNA lever, and thus on reference kinetics, its switching behavior was investigated in TE40, TE40 + 1 mM CaCl2, TE40 + 1 mM CaCl2 + 1% DMSO or TE40 + 1 mM CaCl2 + 0.1% DMSO.
Then, the dehybridization of the reference lever occurred during a regeneration step followed by the hybridization with an ssDNA-hTGase 2 conjugate (500 nM). Thereafter, the switching kinetics was recorded. […]
The impact on the hydrodynamic drag of the hTGase 2-functionalized lever was investigated under identical conditions for the three irreversible inhibitors 1–3: At first, the switching kinetics of the dsDNA lever and the hTGase 2-dsDNA conjugates were recorded. Secondly, the switching kinetics of the hTGase 2-dsDNA conjugates during and after Ca^2+ exposure were recorded using TE40 + 1 mM CaCl2 or TE40, respectively. […] In this process, the hydrodynamic drag was analyzed during the exposure to 10 µM inhibitor (for 6 min) dissolved in TE40 + 1 mM CaCl2 + 0.1% DMSO and to TE40 afterward. […]

[4] = target: T3, commercial His6-hTGase 2 (Homo sapiens, UniProt P21980); test: fluorescence anisotropy (FA)-based transamidase activity assay, commercial His6-hTGase 2; assay type: biochemical; details: 5 min pre-incubation of enzyme and inhibitor; mean (SEM) of three experiments
T3 construct: purchased Zedira (Darmstadt, Germany) T022, lot 0716a
T3 sequence (P21980 1-687): T1 sequence (P21980 1-687)
Protocol: (§1) For the analysis of inhibitor 1 on self-produced hTGase 2, 2 µg/mL of the enzyme was used to guarantee comparability with the value reported by Wodtke et al., whereas all other experiments were performed with 5 µg/mL of either commercial or self-produced hTGase 2 (corresponding to 64.1 and 61.6 nM, respectively, when assuming 100% active protein). Parallel and perpendicular fluorescence intensities were measured over 1190 s in 35 s intervals (1) or over 1776 s in 48 s intervals (2, 3) and used to calculate the FA. Data of FA for the first 875 s (1) or 384 s (2, 3) were analyzed by linear regression, with slopes corresponding to enzymatic rates. Rates in the presence of inhibitor were normalized by dividing them by the respective rate in the absence of inhibitor, and normalized rates were analyzed according to Equation (S29) in Supplementary Materials to calculate values of IC50. Data analysis was performed with Microsoft Excel (Microsoft Office Professional Plus 2016, Microsoft® Corporation, USA) and GraphPad Prism version 5.03 or version 6.07 for Windows (GraphPad Software, La Jolla, CA, USA).

[5] = target: T4, in-house produced N-terminally Twin-Strep-tagged hTGase 2 (Homo sapiens, UniProt P21980); test: fluorescence anisotropy (FA)-based transamidase activity assay, in-house Twin-Strep-tagged hTGase 2; assay type: biochemical; details: 5 min pre-incubation of enzyme and inhibitor; mean (SEM) of three experiments
T4 construct: thrombin cleavage site (N); made in house; host or cells: E. coli BL21(DE3)
T4 sequence (P21980 1-687): T1 sequence (P21980 1-687)
Text: The gene of hTGase 2 (Uniprot ID: P21980) with an N-terminal thrombin cleavage site was cloned into the pPSG-IBA105 vector containing the sequence for an N-terminal Twin-Strep-tag (IBA Lifesciences GmbH, Göttingen, Germany) to obtain the final plasmid pPSG-IBA105/TCS-hTGase 2. The plasmid construct was verified by DNA sequencing (Eurofins Genomics Germany GmbH) and then transformed into E. coli BL21(DE3) by the heat–shock method. hTGase 2-expressing E. coli cells were lysed by lysozyme treatment, and hTGase 2 was purified by affinity chromatography on an ÄKTA purifier UPC 10 FPLC equipped with a Strep-Tactin XT cartridge (GE Healthcare Europe GmbH, Freiburg, Germany). Identity and purity of self-produced hTGase 2 were verified by SDS-PAGE and Western Blot analysis, respectively. Protein concentration was determined according to Bradford. More detailed descriptions of the generation and characterization of the final plasmid construct pPSG-IBA105/TCS-hTGase 2 and the expression, purification, and characterization of the self-produced hTGase 2 protein will be published elsewhere (manuscript in preparation).
as §1

[6] = target: T3, commercial His6-hTGase 2; parameters: method as in PMID 29664627; details: 5 min pre-incubation of enzyme and inhibitor; mean (SEM); previously reported; cited from earlier work
[7] = target: T1, His6-hTGase 2; parameters: method as in PMID 29664627; details: mean (SEM); previously reported; cited from earlier work

kinact/KI [2] | IC50 [4] | SMILES | pK value of H2GTP^3− (γP-OH) [1] | pK value of H3GTP^2− (N7^+H) [1] | pK value of HGTP^4− (N1H) [1] | friction (relative inverse slope) after removal of Ca^2+ and inhibitor ("after Ca^2+ + inhibitor") [3] | IC50 [5] | IC50 [6] | kinact/KI [7]
– | – | Nc1nc2c(ncn2[C@@H]2O[C@H](COP(=O)(O)OP(=O)(O)OP(=O)(O)O)[C@@H](O)[C@H]2O)c(=O)[nH]1 [GTP] | 6.5 | 2.9 | 9.6 | – | – | – | –
4500 M⁻¹ s⁻¹ | 280 nM | C=CC(=O)NCCCCC(NC(=O)Cc1ccccc1I)C(=O)N1CCN(c2ccc(C(F)(F)F)nc2)CC1 [Compound 3, N^α-(2-Iodophenylacetyl)-N^ε-acryloyl-L-lysin-4-(2-trifluoromethyl-5-yl)piperazide] | – | – | – | significantly higher compared to “w/o” and “after Ca^2+” | 209 nM | – | –
– | – | C=CC(=O)NCCCCC(NC(=O)Cc1ccccc1)C(=O)N1CCN(c2cccc(F)n2)CC1 (stereo not shown) [Compound 1] | – | – | – | – | 135 nM | 108 nM | 3850 (240) ^e M^−1s^−1
